In US4377594A, “Derivative of 4-(N-(substituted-benzylidene)amino-methyl cyclohexane-1-carboxylic acid” (Kureha Kagaku Kogyo Kabushiki Kaisha, priority 1980, dated 1983):
Where a name gives a salt, the structure may show the parent alone. Read-outs that look alike come from different tables or passages of the source.

What was measured:
female JCL-ICR mouse = test: acute toxicity, peroral administration; conditions: mouse, in vivo
Excerpt: (§1) (3) Examination method for acute toxicity
(§2) Acute toxicity was examined by administering perorally an aqueous solution of each Specimen to female JCL-ICR mouse of 5 to 6 weeks after birth.
(§3) ^(3) Median lethal dose (LD50), that is, dose for getting 50% of
(§4) mice to death, in unit of mg per one kilogram of body weight of mouse.

[1] = tested on: Rabbit platelet rich plasma (PRP); platelet aggregation; test: inhibitory effect on platelet aggregation (induced by sodium arachidonate); type: cell-based; conditions: rabbit PRP 300,000/μl; sodium arachidonate tested at 400 μM; preincubated at 37° C. for 5 min
Experimental: (1) Examination method for inhibitory effect on platelet aggregation
Rabbit platelet rich plasma (PRP) was used for Aggregation Tests. PRP was prepared by centrifugation of blood collected from the ear vein of Rabbit and diluted into number-concentration 300,000/μl with platelet poor plasma. Platelet aggregation was induced by Sodium Arachidonate and monitored (measured) with a four channel platelet aggregation Tracer PAT-4A (Niko Bioscience Co., Japan). Aggregation Tracer tube contaning 230 μl PRP was preincubated at 37° C. for 5 min with each Specimen.
^(1) The minimum concentration (μM) of each Specimen for inhibitin
completely (100%) the platelet aggregating effect by sodium arachidonate

[2] = acute toxicity, peroral administration; conditions: in vivo, po; peroral, aqueous solution, female JCL-ICR mouse 5 to 6 weeks
Excerpt: as §1, §2, §3, §4

[3] = tested on: Rat's polynuclear leukocyte migration; test: inhibitory effect on polynuclear leukocyte migration (Boyden method); type: cell-based; conditions: read-out: Inhibition rate of polynuclear leukocyte migration
Experimental: (2) Examination method for inhibitory effect on polynuclear leukocyte migration
Rat's polynuclear leukocyte migration was examined by Boyden method (refer to Japanese J. Clin. Med., 27(9), 172 (1969)) as follows; a mixture of 10 parts by volume of culture filtrate of E. coli and one part by volume of serum was incubated at 37° C. for one hour and diluted into 5-times volume with physiological salt solution, and the mixture obtained was used as an attractant. After preincubating polynuclear leukocyte suspension with each specimen for 10 min, migration of polynuclear leukocytes was examined.
^(2) The average value of inhibition rate (%) of polynuclear leukocyt
migration at each concentration (μM) of each Specimen.

[4] = 1 μM, average value, preincubation 10 min, rat
[5] = 10 μM, average value, preincubation 10 min, rat
[6] = 100 μM, average value, preincubation 10 min, rat
[7] = 1000 μM, average value, preincubation 10 min, rat

COc1ccc(C=NC[C@H]2CC[C@H](C(=O)O)CC2)cc1OC [Example 7 sodium salt, sodium salt of trans-4-[N-(3',4'-dimethoxybenzylidene)aminomethyl]cyclohexane-1-carboxylic acid]
acute toxicity (in words) (female JCL-ICR mouse): low acute toxicity

COc1cc(C=NC[C@H]2CC[C@H](C(=O)O)CC2)cc(OC)c1OC [Example 8 sodium salt, trans-4-[N-(3',4',5'-trimethoxybenzylidene)aminomethyl]cyclohexane-1-carboxylic acid]
acute toxicity (in words) (female JCL-ICR mouse): low acute toxicity

COc1cc(C=NC[C@H]2CC[C@H](C(=O)O)CC2)ccc1O [Example 9 sodium salt, trans-4-[N-(3'-methoxy-4'-hydroxybenzylidene)aminomethyl]cyclohexane-1-carboxylic acid]
acute toxicity (in words) (female JCL-ICR mouse): low acute toxicity

O=C(O)[C@H]1CC[C@H](CN=Cc2ccc(O)cc2O)CC1 [III]
Platelet aggregation ID100 (minimum concentration for inhibiting completely (100%) the platelet aggregating effect by sodium arachidonate) [1]: > 1000 µM | LD50 [2]: > 3000 mg/kg | inhibition at 1 µM [3, 4]: 0% | inhibition at 10 µM [3, 5]: 12% | inhibition at 100 µM [3, 6]: 42% | inhibition at 1000 µM [3, 7]: 92%

O=C(O)[C@H]1CC[C@H](CN=Cc2cccc(O)c2O)CC1 [II]
LD50 [2]: > 3000 mg/kg | inhibition at 1 µM [3, 4]: 0% | inhibition at 10 µM [3, 5]: 25% | inhibition at 100 µM [3, 6]: 66% | inhibition at 1000 µM [3, 7]: 100%

COc1ccccc1C=NC[C@H]1CC[C@H](C(=O)O)CC1 [IV]
LD50 [2]: > 3000 mg/kg | inhibition at 1 µM [3, 4]: 0% | inhibition at 10 µM [3, 5]: 0% | inhibition at 100 µM [3, 6]: 27% | inhibition at 1000 µM [3, 7]: 94%

O=C(O)[C@H]1CC[C@H](CN=Cc2ccccc2O)CC1 [I]
Platelet aggregation ID100 (minimum concentration for inhibiting completely (100%) the platelet aggregating effect by sodium arachidonate) [1]: > 1000 µM | LD50 [2]: ~2000 mg/kg | inhibition at 1 µM [3, 4]: 0% | inhibition at 10 µM [3, 5]: 0% | inhibition at 100 µM [3, 6]: 39% | inhibition at 1000 µM [3, 7]: 93%

CN1CCCN(C(c2ccccc2)c2ccc(Cl)cc2)CC1 (stereo not drawn) [VI]
Platelet aggregation ID100 (minimum concentration for inhibiting completely (100%) the platelet aggregating effect by sodium arachidonate) [1]: > 1000 µM | LD50 [2]: 350 mg/kg | inhibition at 1 µM ([3]; Rattus norvegicus): 15% | inhibition at 10 µM ([3]; Rattus norvegicus): 48% | inhibition at 100 µM ([3]; Rattus norvegicus): 80% | inhibition at 1000 µM ([3]; Rattus norvegicus): 100%

COc1ccc2c(c1)c(CC(=O)O)c(C)n2C(=O)c1ccc(Cl)cc1 [V]
LD50 [2]: 30 mg/kg | inhibition at 1 µM ([3]; Rattus norvegicus): 0% | inhibition at 10 µM ([3]; Rattus norvegicus): 0% | inhibition at 100 µM ([3]; Rattus norvegicus): 25% | inhibition at 1000 µM ([3]; Rattus norvegicus): 79%
